Data as given in patent US20100028366A1, “SYNERGISTIC EFFECT BETWEEN A […] AND ANOTHER OXIDATIVE INDUCING SYSTEM FOR TREATING TUMORS” (priority 2005, published 2010).

Assays:
GB-LP-1 cells = experiment: Survival by MTT of GB-LP-1 explant cells infected with adenolis; type: cell-based, human; conditions: 500 μg/ml linamarin; even at MOI: 1
Method: The behavior of the lis/lin therapy in one of the explants (GB-LP-1) was additionally analyzed. These cells were infected with adenolis (MOI: 0, 1, 12, 100 and 500) and the survival and production of cyanide after the addition of 500 μg/ml linamarin (FIGS. 6G and 6H, respectively) were studied.
10^5 cells (W&W and patient explants) were seeded in test tubes with a flat side and screw-on cap (Nunc), or 5×10^4 cells were seeded on cover slips in 24-well plates and were simultaneously infected with adenolis (Crucell) at different multiplicities of infection (MOI: 0; 0.2; 1; 10; 100 or 500). For the cells seeded in test tubes, the medium was changed after 24 hours adding 0.5 mg/ml of linamarin where appropriate. A cell viability assay was conducted with MTT at 96 hours after the addition of linamarin. 48 hours after infection the cells seeded in the cover slips were processed to perform immunofluorescence to detect linamarase.

W&Wlis cells [1] = experiment: Analysis of the type of death by flow cytometry (annexin V-FITC/propidium iodide); type: cell-based, canine; parameters: Necrosis / Apoptosis: unit not given here; conditions: Without GO
Method: The annexin V-FITC and propidium iodide assay was performed in parallel by flow cytometry. The pattern of death of the system was analyzed when adding 5 mEU/ml of glucose oxidase and the combined therapy (5 mEU/ml of GO and 500 μg/ml of linamarin) at 48 hours, followed by the control of untreated cells and of the cells incubated with 500 μg/ml of linamarin at 96 hours. Furthermore, another group of cells was subjected to the same conditions except 10 mM of N-acetyl cysteine (NAC) were added. The cells treated with the combined therapy were subsequently studied at 48 hours in the absence and presence of 100 μM of Z-VAD-fmk, followed by the control of treatment of the cells with UV in the same conditions. Finally, the cells treated with the combined therapy were shown at 48 hours in the absence and presence of 300 μM of 1,5-isoquinolinediol (DIQ), observing that the pattern of death is not modified when PARP-1 is inhibited (FIG. 4).
10^5 W&Wlis cells were seeded in test tubes with a screw-on cap and flat side (Nunc). After 24 hours, different amounts of linamarin (50, 200 or 500 μg/ml) and glucose oxidase (5 mEU/ml) were added in the specified cases. In the appropriate assays, the medium was supplemented with N-acetyl cysteine (10 mM), 1,5-isoquinolinediol (300 μM) or Z-VAD-fmk (100 μM). […] They were centrifuged for 5 minutes at 1200 rpm and the cell precipitate was washed first with PBS and then with binding buffer (0.1 M Hepes/NaOH pH 7.4, 1.4 M NaCl and 25 mM CaCl2). The cells were again precipitated and resuspended in 100 μl of binding buffer supplemented with 5 μl of annexin V-FITC and 2.5 μg/ml of propidium iodide. The samples were incubated for 15 minutes in the dark. Data acquisition and analysis was carried out by means of a FACSCalibur flow cytometer (DB Biosciences) with the Cell Quest program.

W&Wlis cells [2] = experiment: Structural modifications of the mitochondrion (pDsRed2-mito, confocal microscopy); type: cell-based, canine; conditions: linamarin 500 μg/ml from 48 hours; glucose oxidase 5 mEU/ml; combination after 24 hours
Method: For the purpose of studying the mitochondrial dynamics occurring as a result of the oxidative stress caused by the activity of the claimed system, W&Wlis cells were stably transfected with the plasmid pdsRed2-mito (Clontech) containing the gene of the one red fluorescent protein carried by a transport signal peptide to the mitochondrion. This allowed viewing the mitochondria of cells treated with linamarin and glucose oxidase by fluorescence microscopy. […] This effect starts to be observed 48 hours after treatment with linamarin (FIG. 1B) and becomes more pronounced after 72 hours, a slight swelling of the fragments (FIG. 1C) being observed.
To study the structural modifications of the mitochondrion during therapy, the W&W and W&Wlis cells were transfected with the plasmid pDsRed2-mito (Clontech, BD Bioscience) containing the gene of a red fluorescent protein which is expressed exclusively in mitochondria. The transfection was performed similarly to the previous section and clones were selected by resistance to neomycin (0.75 and 1.5 mg/ml respectively). The cells from stable expression clones of the protein were seeded in multiwell plates on cover slips (2.5×10^4) and were treated with linamarin (50, 200 or 500 μg/ml) and glucose oxidase (5 mEU/ml). After the suitable incubation time for each experiment (24, 48 or 72 hours) elapsed, the cells were fixed with 4% paraformaldehyde. […]

[3] = 50 μg lin, 96 hours, NAC (10 mM)
[4] = 200 μg lin, 96 hours, NAC (10 mM)
[5] = 500 μg lin, 96 hours, NAC (10 mM)
[6] = Table 4, 50 μg lin, 72 hours, Z-VAD-fmk (100 μM)
[7] = Table 4, 50 μg lin, 72 hours, control (no Z-VAD-fmk)
[8] = Table 4, 200 μg lin, 72 hours, Z-VAD-fmk (100 μM)
[9] = Table 4, 200 μg lin, 72 hours, control (no Z-VAD-fmk)
[10] = Table 4, 500 μg lin, 72 hours, Z-VAD-fmk (100 μM)
[11] = Table 4, 500 μg lin, 72 hours, control (no Z-VAD-fmk)

SMILES: CC(C)(C#N)O[C@@H]1O[C@H](CO)[C@@H](O)[C@H](O)[C@H]1O [lin, 2-hydroxy-isobutyronitrile-β-D-glucopyranoside]
- sensitivity of adenolis-infected cells to linamarin (survival) (GB-LP-1 cells): very sensitive to treatment with linamarin
- Apoptosis (W&Wlis cells [1]; 50 μg lin, 48 h): 3.71
- Necrosis (W&Wlis cells [1]; 50 μg lin, 48 h): 2.96
- Apoptosis (W&Wlis cells [1]; 50 μg lin, 72 h): 3.74
- Necrosis (W&Wlis cells [1]; 50 μg lin, 72 h): 5.28
- Apoptosis (W&Wlis cells [1]; 50 μg lin, 96 h): 20.83
- Necrosis (W&Wlis cells [1]; 50 μg lin, 96 h): 11.33
- Apoptosis (W&Wlis cells [1]; [3]): 6.44
- Necrosis (W&Wlis cells [1]; [3]): 51.89
- Apoptosis (W&Wlis cells [1]; 200 μg lin, 48 h): 3.84
- Necrosis (W&Wlis cells [1]; 200 μg lin, 48 h): 5.68
- Apoptosis (W&Wlis cells [1]; 200 μg lin, 72 h): 4.62
- Necrosis (W&Wlis cells [1]; 200 μg lin, 72 h): 9.34
- Apoptosis (W&Wlis cells [1]; 200 μg lin, 96 h): 14.31
- Necrosis (W&Wlis cells [1]; 200 μg lin, 96 h): 45.15
- Apoptosis (W&Wlis cells [1]; [4]): 21.58
- Necrosis (W&Wlis cells [1]; [4]): 29.18
- Apoptosis (W&Wlis cells [1]; 500 μg lin, 48 h): 5.17
- Necrosis (W&Wlis cells [1]; 500 μg lin, 48 h): 5.54
- Apoptosis (W&Wlis cells [1]; 500 μg lin, 72 h): 6.25
- Necrosis (W&Wlis cells [1]; 500 μg lin, 72 h): 6.91
- Apoptosis (W&Wlis cells [1]; 500 μg lin, 96 h): 18.99
- Necrosis (W&Wlis cells [1]; 500 μg lin, 96 h): 24.98
- Apoptosis (W&Wlis cells [1]; [5]): 18.53
- Necrosis (W&Wlis cells [1]; [5]): 19.89
- Apoptosis (W&Wlis cells [1]; [6]): 3.48
- Necrosis (W&Wlis cells [1]; [6]): 15.01
- Apoptosis (W&Wlis cells [1]; [7]): 1.36
- Necrosis (W&Wlis cells [1]; [7]): 14.72
- Apoptosis (W&Wlis cells [1]; [8]): 2.56
- Necrosis (W&Wlis cells [1]; [8]): 13.07
- Apoptosis (W&Wlis cells [1]; [9]): 3.30
- Necrosis (W&Wlis cells [1]; [9]): 30.13
- Apoptosis (W&Wlis cells [1]; [10]): 6.08
- Necrosis (W&Wlis cells [1]; [10]): 13.24
- Apoptosis (W&Wlis cells [1]; [11]): 9.02
- Necrosis (W&Wlis cells [1]; [11]): 18.04
- mitochondrial pattern (W&Wlis cells [2]): dotted pattern
